Experimental data taken from patent US8835458B2 (Hanmi Science Co., Ltd, priority 2010, dated 2014).
Where a name gives a salt, the structure may show the parent alone. Read-outs that look alike come from different tables or passages of the source.

What was measured:
[1] = system: MDA-MB-231 breast cancer cell lines; test: Evaluation of inhibition on cell growth (MTS); format: cell-based; conditions: Homo sapiens, MDA-MB-231, 120 hours
Method in brief: (§1)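 Cells seeded at 3,000˜5,000 cells/100 μL, grown 24 h at 37° C (MDA-MB-231 under atmospheric conditions), then exposed to 10 μM˜0.1 nM compound. MDA-MB-231 cultured 120 h, read by MTS at 490 nm; fibroblasts cultured 72 h, TCA-fixed, SRB-stained, read at 540 nm. GI50 from growth relative to untreated and medium-only cells.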

[2] = Toxicity to normal cells (SRB); format: cell-based, human; conditions: human, Hs27 fibroblasts (normal cell line)
Method in brief: as §1

[3] = Toxicity to normal cells (SRB); format: cell-based, mouse; conditions: mouse, Balb/c3t3 fibroblasts (normal cell line), read-out: BalB/C (GI50)
Method: MDA-MB-231 breast cancer cell lines (ATCC #HTB-26) and BxPC-3 pancreas cancer cell lines (ATCC #CRL 1687), which have been reported to express XIAP, were obtained from ATCC (American type culture collection; Rockville, Md.). MDA-MB-231 cell lines were incubated in L-15 medium supplemented with 10% FBS and 1% penicillin/streptomycin (Gibco BRL) at a T-75 cm^2 growth flask. In addition, BxPC-3 cell lines were incubated in RPMI medium supplemented with 10% FBS and 1% penicillin/streptomycin. For experiments of toxicity to normal cells, fibroblasts Hs27 (ATCC #CRL 1634) and Balb/c3t3 (ATCC #CCL 163) were used. The various cell lines were transferred into 96-well plates at a density of 3,000˜5,000 cells/100 μL, and cultured for 24 hours under conditions of 37° C., 5% CO2, 95% air, and 100% relative humidity (MDA-MB-231 cells were cultured under atmospheric conditions). The cells were treated with 10 μM˜0.1 nM of test compounds, and MDA-MB-231, BxPC-3, and normal cell lines were cultured for 120, 96, and 72 hours, respectively.
Cell viabilities of MDA-MB-231 cell lines were measured at an absorbance of 490 nm using CellTiter 96™ AQueous One Solution Cell proliferation Assay (MTS, Promega), and cell viabilities of BxPC-3 and normal cell lines were measured by fixing cells with 10% TCA (trichloroacetic acid), staining with SRB (sulforhodamine B), and measuring at 540 nm. From the values, GI50 values in which test compounds reduce the growth of cancer cells by 50% were calculated. The growth rates of cancer cells were calculated from following Equation 1 or 2. [(Ti−Tz)/(C−Tz)]×100 (for Ti>=Tz) [Equation 1] [(Ti−Tz)/Tz]×100 (for Ti<Tz) [Equation 2] In Equations 1 and 2, Tz refers to a density of untreated cells, which is an absorbance in 0% cell growth groups. C refers to a density of cells cultured by adding only medium, and Ti refers to a density of cells treated with test compounds.
GI50 value is the concentration of a test compound when the value of Equation 1 is 50, which indicates the concentration of test compound required to inhibit the cancer cells by 50%. On each measurement, test compounds were compared with a control.
The activity value of each compound (GI50 value) was shown in Table 5, and an IAP antagonist was used as a control.
In the activity measurement on MDA-MB-231 breast cancer cell lines, the values were represented as “***” for 100 nM or less, “**” for over 100 nM to below 1,000 nM, and “*” for 1,000 nM or more. In the measurement on normal cell lines, Balb/C and Hs27, the values were represented as “+++” for 10,000 nM or more, “++” for over 5,000 nM to below 10,000 nM, and “+” for 5,000 nM or less.

Row | GI50 [1] [µM] | Compound | GI50 at 72 h [2] [µM] | GI50 at 72 h [3] [µM]
1 | ≤ 0.1 | CN[C@@H](C)C(=O)N[C@H](C(=O)N1CCC[C@H]1C(=O)Nc1cc2c(Nc3ccc(N4CCN(C)CC4)cc3)ncnc2cc1OC)C(C)(C)C [Example 67, (S)-1-((S)-3,3-dimethyl-2-((S)-2-(methylamino)propanamido)butanoyl)-N-(7-methoxy-4-(4-(4-methylpiperazin-1-yl)phenylamino)quinazolin-6-yl)pyrrolidine-2-carboxamide dihydrochloride] | > 10 | > 10
2 | ≤ 0.1 | CN[C@@H](C)C(=O)N[C@H](C(=O)N1CCC[C@H]1C(=O)Nc1cc2c(Nc3ccc(F)cc3)ncnc2cc1OC)C(C)(C)C [Example 55, (S)-1-((S)-3,3-dimethyl-2-((S)-2-(methylamino)propanamido)butanoyl)-N-(4-(4-fluorophenylamino)-7-methoxyquinazolin-6-yl)pyrrolidine-2-carboxamide] | > 10 | > 10
3 | ≤ 0.1 | CN[C@@H](C)C(=O)N[C@H](C(=O)N1CCC[C@H]1C(=O)Nc1cc2c(Nc3ccc(NC(=O)c4ccccc4)cc3)ncnc2cc1OC)C(C)(C)C [Example 76, (S)—N-(4-(4-benzamidophenylamino)-7-methoxyquinazolin-6-yl)-1-((S)-3,3-dimethyl-2-((S)-2-(methylamino)propanamido)butanoyl)pyrrolidine-2-carboxamide] | > 10 | > 10
4 | ≤ 0.1 | CNC(=O)c1ccc(Nc2ncnc3cc(OC)c(NC(=O)[C@@H]4CCCN4C(=O)[C@@H](NC(=O)[C@H](C)NC)C(C)(C)C)cc23)cc1 [Example 74, (S)-1-((S)-3,3-dimethyl-2-((S)-2-(methylamino)propanamido)butanoyl)-N-(7-methoxy-4-(4-(methylcarbamoyl)phenylamino)quinazolin-6-yl)pyrrolidine-2-carboxamide] | > 10 | > 10
5 | ≤ 0.1 | CN[C@@H](C)C(=O)N[C@H](C(=O)N1CCC[C@H]1C(=O)Nc1cc2c(NC3CCCCC3)ncnc2cc1OC)C(C)(C)C [Example 38, (S)—N-(4-(cyclohexylamino)-7-methoxyquinazolin-6-yl)-1-((S)-3,3-dimethyl-2-((S)-2-(methylamino)propanamido)butanoyl)pyrrolidine-2-carboxamide hydrochloride] | > 10 | > 10
6 | ≤ 0.1 | CN[C@@H](C)C(=O)N[C@H](C(=O)N1CCC[C@H]1C(=O)Nc1cc2c(Nc3ccccc3Cl)ncnc2cc1OC)C(C)(C)C [Example 21, (S)—N-(4-(2-chlorophenylamino)-7-methoxyquinazolin-6-yl)-1-((S)-3,3-dimethyl-2-((S)-2-(methylamino)propanamido)butanoyl)pyrrolidine-2-carboxamide hydrochloride] | > 10 | > 10
7 | ≤ 0.1 | CN[C@@H](C)C(=O)N[C@H](C(=O)N1CCC[C@H]1C(=O)Nc1cc2c(Nc3cc(NC(C)=O)ccc3Cl)ncnc2cc1OC)C(C)(C)C [Example 75, (S)—N-(4-(5-acetamino-2-chlorophenylamino)-7-methoxyquinazolin-6-yl)-1-((S)-3,3-dimethyl-2-((S)-2-(methylamino)propanamido)butanoyl)pyrrolidine-2-carboxamide] | > 10 | > 10
8 | ≥ 1 | CN[C@@H](C)C(=O)N[C@H](C(=O)N1CCC[C@H]1C(=O)Nc1cc2c(Nc3ccc4c(c3)OCO4)ncnc2cc1OC)C(C)(C)C [Example 61, (S)—N-(4-(benzo[d][1,3]dioxol-5-ylamino)-7-methoxyquinazolin-6-yl)-1-((S)-3,3-dimethyl-2-((S)-2-(methylamino)propanamido)butanoyl)pyrrolidine-2-carboxamide] | > 10 | > 10
9 | 0.1 to 1 | CN[C@@H](C)C(=O)N[C@H](C(=O)N1CCC[C@H]1C(=O)Nc1cc2c(Nc3c(Cl)ccc4c3OCO4)ncnc2cc1OCCOC)C(C)(C)C [Example 3, ((S)—N-(4-(5-chlorobenzo[d][1,3]dioxol-4-ylamino)-7-(2-methoxyethoxy)quinazolin-6-yl)-1-((S)-3,3-dimethyl-2-((S)-2-(methylamino)propanamido)butanoyl)pyrrolidine-2-carboxamide hydrochloride] | > 10 | > 10
10 | ≤ 0.1 | CN[C@@H](C)C(=O)N[C@H](C(=O)N1CCC[C@H]1C(=O)Nc1cc2c(Nc3ccc(N4CCCCC4)cc3)ncnc2cc1OC)C(C)(C)C [Example 66, (S)-1-((S)-3,3-dimethyl-2-((S)-2-(methylamino)propanamido)butanoyl)-N-(7-methoxy-4-(4-(piperidin-1-yl)phenylamino)quinazolin-6-yl)pyrrolidine-2-carboxamide dihydrochloride] | > 10 | > 10
11 | ≤ 0.1 | CN[C@@H](C)C(=O)N[C@H](C(=O)N1CCC[C@H]1C(=O)Nc1cc2c(Nc3ccc(Cl)cc3)ncnc2cc1OC)C(C)(C)C [Example 56, (S)—N-(4-(4-chlorophenylamino)-7-methoxyquinazolin-6-yl)-1-((S)-3,3-dimethyl-2-((S)-2-(methylamino)propanamido)butanoyl)pyrrolidine-2-carboxamide] | > 10 | > 10
12 | 0.1 to 1 | CN[C@@H](C)C(=O)N[C@H](C(=O)N1CCC[C@H]1C(=O)Nc1cc2c(Nc3ccc(F)c(Cl)c3F)ncnc2cc1OCCOC)C(C)(C)C [Example 6, (S)—N-(4-(3-chloro-2,4-difluorophenylamino)-7-(2-methoxyethoxy)quinazolin-6-yl)-1-((S)-3,3-dimethyl-2-((S)-2-(methylamino)propanamido)butanoyl)pyrrolidine-2-carboxamide hydrochloride] | > 10 | > 10
13 | ≤ 0.1 | CN[C@@H](C)C(=O)N[C@H](C(=O)N1CCC[C@H]1C(=O)Nc1cc2c(Nc3ccc(F)c(Cl)c3F)ncnc2cc1O[C@H]1CCOC1)C(C)(C)C [Example 14, (S)—N-(4-(3-chloro-2,4-difluorophenylamino)-7-((S)-tetrahydrofuran-3-yloxy)quinazolin-6-yl)-1-((S)-3,3-dimethyl-2-((S)-2-(methylamino)propanamido)butanoyl)pyrrolidine-2-carboxamide hydrochloride] | > 10 | > 10
14 | ≤ 0.1 | CN[C@@H](C)C(=O)N[C@H](C(=O)N1CCC[C@H]1C(=O)Nc1cc2c(Nc3ccccc3OC)ncnc2cc1OC)C(C)(C)C [Example 30, (S)—N-(4-(2-methoxyphenylamino)-7-methoxyquinazolin-6-yl)-1-((S)-3,3-dimethyl-2-((S)-2-(methylamino)propanamido)butanoyl)pyrrolidine-2-carboxamide hydrochloride] | > 10 | > 10
15 | ≤ 0.1 | CN[C@@H](C)C(=O)N[C@H](C(=O)N1CCC[C@H]1C(=O)Nc1cc2c(Nc3cccc(F)c3F)ncnc2cc1OC)C(C)(C)C [Example 42, (S)—N-(4-(2,3-difluorophenylamino)-7-methoxyquinazolin-6-yl)-1-((S)-3,3-dimethyl-2-((S)-2-(methylamino)propanamido)butanoyl)pyrrolidine-2-carboxamide hydrochloride] | > 10 | > 10
